Experimental data from US10918651B2, “Method for lowering thyrotropin levels in adults” (University of Louisiana at Lafayette, priority 2016, dated 2021).

Experiments:
dopamine receptors = details: chronic administration, aging mice; cited from earlier work
[1] = in vivo; cited from earlier work
[2] = test system: thyroid stimulating hormone (TSH)
Experimental: A study was performed of this invention using forty-eight male college-aged volunteers. The participants were divided into 4 groups of 12 subjects. The groups reported to the lab after an overnight fast and were then administered the following: 200 mg of Caffeine, 250 mg of A-GPC, 500 mg of A-GPC or placebo. One hour and two hours post administration blood was drawn from a vein in the antecubital space into a serum separator tube, this was allowed to stand for 15 minutes, then centrifuged and the serum drawn off and frozen at −35 degrees Celsius for later evaluation.
At the conclusion of data collection, the serum aliquots were thawed and a commercially available high-sensitivity ELISA was uses to quantify TSH levels (Eagle Biosciences TSH Ultrasensitive ELISA kit). Samples were tested in duplicate with inter and intra place CV % of less than 10. A repeated measures Anova was used to assess TSH level by group.

Which “dopamine receptors in the brain” value (dopamine receptors) does the source give for `C[N+](C)(C)CCOP(=O)(O)OP(=O)([O-])OC[C@H]1O[C@@H](n2ccc(N)nc2=O)[C@H](O)[C@@H]1O` [CDP-choline] here?
Its value is “increase dopamine receptors in the brain”.

What does the source list for `C[N+](C)(C)CCOP(=O)([O-])OC[C@H](O)CO` [A-GPC, Alpha Glycerylphosphoryl Choline]?
crossing the blood brain barrier [1]: capable of crossing the blood brain barrier; incorporation into brain phospholipids after administration [1]: incorporated into brain phospholipids within twenty-four hours; TSH blood levels (effect) ([2]; 250 mg A-GPC, single administration): insufficient to reduce blood TSH; TSH level, group average ([2]; 500 mg A-GPC group, 12 males): 2.3; number of males exhibiting TSH levels lower than 2.0 ([2]; 500 mg A-GPC group, 12 males): 5 of the 12
